Values of other authors in patent publication US11213539B2, “Use of ivermectin and brimonidine in the treatment and/or prevention of moderate to severe rosacea” (GALDERMA HOLDING SA, priority 2015, dated 2022).

Tested on: patients treated with brimonidine 0.33% gel
Conditions: brimonidine used alone; in a number of patients, in particular worsening of erythema (rebound)

**Q.** Which related adverse effects does the source give for Brc1c(NC2=NCCN2)ccc2nccnc12 [brimonidine] here?
**A.** excessive
